Data as given in patent US12448388B2, “PRMT5 inhibitors and uses thereof” (Gilead Sciences, Inc., priority 2023, dated 2025).
Like-named read-outs stand apart in the source and are kept apart here.

Tests used:
[1] = Cell viability assay (CellTiter-Glo, 7 days), HCT116 WT; format: cell-based; conditions: human, HCT116 WT cells, 7 days of treatment, CTG
Outline: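 Each PRMT5 inhibitor was tested as a dose response alongside tool compounds on the same plate. Incubation ran 7 days at 37 °C under 5% CO2, after which CellTiter-Glo luminescence was recorded and CC50 calculated.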

[2] = Pharmacokinetics in cassette in male Sprague-Dawley rats for Kp measurement; format: in vivo; conditions: 1 mg/kg, intravenous
Description: E.1 Test Animal: Male Sprague-Dawley Rats (225-300 g) with Indwelling Bilateral Jugular Vain Cannula (JVC/JVC) or Single Jugular Vein Cannula (JVC)
E.2 Pharmaceutical Formulation and Administration
Test compound was dissolved in the vehicle of 10% DMSO, 10% ethanol, 40% polyethylene glycol 300, and 40% propylene glycol to get 1 mg/mL test compound solution. The compound was administered by intravenous administration at a dose of 1 mL/kg. Fasting was not required.
• Anticoagulant: K2EDTA • Volume: approximately 225 μL blood at each bleed • Jugula vein via syringe and needle or another method (non-terminal samples) or exsanguination (cardiac puncture) under isoflurane (or CO2 inhalation if isoflurane is unavailable) anesthesia (terminal time points). Blood samples were collected into K2EDTA tubes • Tissue collection and processing: following the terminal blood collection, the brain and CSF were collected from each animal.

[3] = Hepatocyte stability assay, human; format: in vitro ADME; conditions: human hepatocytes, 1 μM
Outline: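 Cryopreserved hepatocytes (viability ≥85%) incubated with 1 μM compound at 1×10^6 cells/mL in KHB, 37 °C, 95% air/5% CO2, sampled at 0, 1, 3 and 6 h. Parent remaining quantified by LC-MS/MS; half-life from first-order exponential fit (ln2/k), scaled to intrinsic hepatic clearance.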

[4] = brain Kp = [brain]/[plasma], rat, read-out: Rat brain Kp
[5] = brain Kpu,u = Kp * (plasma free/rat brain free), read-out: Rat brain Kpu,u

Kp [2, 4]	Human Predicted Hepatocyte CL [3] [mL/min/kg]	Kp [2, 5]	Compound	CC50 at 7 days [1] [µM]
0.32	2.67	–	Nc1nc2cnc(C(=O)N3CC[C@H]4C[C@@H]3c3ccc(C(F)(F)F)cc3O4)cc2n2cncc12 [Ff-367, (4-aminoimidazo[1,5-a]pyrido[3,4-e]pyrazin-8-yl)((2S,6R)-9-(trifluoromethyl)-3,4-dihydro-2H-2,6-methanobenzo[b][1,5]oxazocin-5(6H)-yl)methanone]	0.925
0.2	5	0.06	Cc1ncc2c(N)nc3cnc(C(=O)N4CCC[C@@H]5Oc6cc(OC(F)(F)F)ccc6[C@@H]54)cc3n12 [Ff-340, (4-amino-1-methylimidazo[1,5-a]pyrido[3,4-e]pyrazin-8-yl)((4aS,9bS)-7-(trifluoromethoxy)-3,4,4a,9b-tetrahydrobenzofuro[3,2-b]pyridin-1(2H)-yl)methanone]	2.46
0.4	5.83	0.06	Nc1nc2ccc(C(=O)N3CCC[C@@H]4Oc5cc(C(F)(F)F)ccc5[C@@H]43)cc2n2cncc12 [Ff-111, (4-aminoimidazo[1,5-a]quinoxalin-8-yl)((4aS,9bS)-7-(trifluoromethyl)-3,4,4a,9b-tetrahydrobenzofuro[3,2-b]pyridin-1(2H)-yl)methanone]	1.1
